Experimental data from article PMC10762078, “Role of UPF1-LIN28A interaction during early differentiation of pluripotent stem cells” (Nature Communications, 2024).

Legend:
[1] = test system: nonsense-mediated mRNA decay (NMD); assay: NMD reporter mRNA by RT-qPCR in UPF1-depleted HeLa cells with FLAG-LIN28A and CPP-peptides (Supplementary Fig. 5d); format: cell-based; settings: siUPF1 + FLAG-LIN28A, 2 μM, n = 3
Method: For CPP-conjugated peptide delivery, HeLa, 293T, and PA-1 cells were incubated with CPP-conjugated peptides or CPP-FITC at 2 μM in DMEM with 10% FBS for 12 h a day before cell harvest. hPSCs were treated with CPP-conjugated peptides at 10 μM in mTeSR Plus Medium, and the peptide-containing medium was changed every day over 10 days. The ROCK inhibitor (Tocris Bioscience, Y-27632) treated-hPSCs were dissociated into single cells using Accutase (Merck, SCR005) and differentiated into ectoderm, mesoderm, and endoderm using the STEMdiff Trilineage Differentiation Kit ([…] Technologies, 05230) following the manufacturer’s protocol. Differentiated cells treated with CPP-conjugated peptides were analysed at 0, 3, and 5 days for ectoderm and endoderm, and at 0, 3, and 4 days for mesoderm. […]
cDNA was synthesised using RevertAid Reverse Transcriptase (Thermo Fisher Scientific, EP0441) with synthesised random hexamer (Macrogen) for total RNA or stem-loop primers for miRNA. For RT-qPCR reactions, the SensiFAST SYBR No-ROX kit (Meridian Bioscience) was used according to the manufacturer’s protocol. All data analysis and visualisation were conducted using R 3.6.1 [www.r-project.org] or GraphPad Prism 10. RT primers for miRNA and RT-qPCR primer sequences are provided in Supplementary Data 6. […]

[2] = test system: lineage markers in CHA15 cells; assay: RNA-seq of CHA15 cells during ectodermal, mesodermal and endodermal differentiation with CPP-peptides (Fig. 7a); format: cell-based, Homo sapiens; settings: CHA15, 5 days
Method: For CPP-conjugated peptide delivery, HeLa, 293T, and PA-1 cells were incubated with CPP-conjugated peptides or CPP-FITC at 2 μM in DMEM with 10% FBS for 12 h a day before cell harvest. hPSCs were treated with CPP-conjugated peptides at 10 μM in mTeSR Plus Medium, and the peptide-containing medium was changed every day over 10 days. The ROCK inhibitor (Tocris Bioscience, Y-27632) treated-hPSCs were dissociated into single cells using Accutase (Merck, SCR005) and differentiated into ectoderm, mesoderm, and endoderm using the STEMdiff Trilineage Differentiation Kit ([…] Technologies, 05230) following the manufacturer’s protocol. Differentiated cells treated with CPP-conjugated peptides were analysed at 0, 3, and 5 days for ectoderm and endoderm, and at 0, 3, and 4 days for mesoderm.
Total RNA concentration was calculated using Quant-IT RiboGreen (Invitrogen, R11490). […] The libraries were quantified using the KAPA Library Quantification Kits for Illumina Sequencing platforms according to the qPCR Quantification Protocol Guide (KAPA BIOSYSTEMS, KR0405) and qualified using the TapeStation D1000 ScreenTape (Agilent). […]
We pre-processed the raw reads from the sequencer to remove low-quality reads and adapter sequences before analysis and aligned the processed reads to Homo sapiens (GRCh37) using HISAT v2.1.0[52]. […]

For “KKKWCRKKKSSADEKRYRALKRTAERELLMNA [CPP-P8, CPP conjugated to P8]”, which “effect on NMD in absence of UPF1” value [1] is on record?
Its value is “did not affect NMD in the absence of LIN28A or UPF1”.

What about the “ectodermal marker levels” value [2] of the same sequence?
Its value is “overall reduced the levels of its marker, in contrast to mesodermal and endodermal differentiation”.
